From patent US9902702B2, “Spirocycloheptanes as inhibitors of rock” (BRISTOL-MYERS SQUIBB COMPANY, priority 2014, dated 2018) come the findings set out here.

The target of the test is ROCK2 (Homo sapiens, UniProt O75116). Put plainly: ROCK assay: phosphorylation of FITC peptide substrate, LABCHIP 3000 mobility shift. The conditions noted are these: 5 μM ATP, 1.5 μM peptide substrate; read-out: ROCK2 Activity (ROCK IC50 range). Type of test: biochemical. A digest of the protocol:
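Rho kinase variant phosphorylates 1.5 μM FITC-AHA-AKRRRLSSLRA-OH with 5 μM ATP in 20 mM HEPES pH 7.5, 20 mM MgCl2, 0.015% Brij-35, 4 mM DTT, DMSO <2%. EDTA stops the reaction, and phospho and non-phospho peptides are resolved by LabChip 3000 mobility shift. IC50 from dose-response curve fit.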

SMILES strings stand for the structures.

A word on the IC50: it is the concentration needed to halve the response being measured.

ROCK2, sequence (O75116 whole entry, species assumed): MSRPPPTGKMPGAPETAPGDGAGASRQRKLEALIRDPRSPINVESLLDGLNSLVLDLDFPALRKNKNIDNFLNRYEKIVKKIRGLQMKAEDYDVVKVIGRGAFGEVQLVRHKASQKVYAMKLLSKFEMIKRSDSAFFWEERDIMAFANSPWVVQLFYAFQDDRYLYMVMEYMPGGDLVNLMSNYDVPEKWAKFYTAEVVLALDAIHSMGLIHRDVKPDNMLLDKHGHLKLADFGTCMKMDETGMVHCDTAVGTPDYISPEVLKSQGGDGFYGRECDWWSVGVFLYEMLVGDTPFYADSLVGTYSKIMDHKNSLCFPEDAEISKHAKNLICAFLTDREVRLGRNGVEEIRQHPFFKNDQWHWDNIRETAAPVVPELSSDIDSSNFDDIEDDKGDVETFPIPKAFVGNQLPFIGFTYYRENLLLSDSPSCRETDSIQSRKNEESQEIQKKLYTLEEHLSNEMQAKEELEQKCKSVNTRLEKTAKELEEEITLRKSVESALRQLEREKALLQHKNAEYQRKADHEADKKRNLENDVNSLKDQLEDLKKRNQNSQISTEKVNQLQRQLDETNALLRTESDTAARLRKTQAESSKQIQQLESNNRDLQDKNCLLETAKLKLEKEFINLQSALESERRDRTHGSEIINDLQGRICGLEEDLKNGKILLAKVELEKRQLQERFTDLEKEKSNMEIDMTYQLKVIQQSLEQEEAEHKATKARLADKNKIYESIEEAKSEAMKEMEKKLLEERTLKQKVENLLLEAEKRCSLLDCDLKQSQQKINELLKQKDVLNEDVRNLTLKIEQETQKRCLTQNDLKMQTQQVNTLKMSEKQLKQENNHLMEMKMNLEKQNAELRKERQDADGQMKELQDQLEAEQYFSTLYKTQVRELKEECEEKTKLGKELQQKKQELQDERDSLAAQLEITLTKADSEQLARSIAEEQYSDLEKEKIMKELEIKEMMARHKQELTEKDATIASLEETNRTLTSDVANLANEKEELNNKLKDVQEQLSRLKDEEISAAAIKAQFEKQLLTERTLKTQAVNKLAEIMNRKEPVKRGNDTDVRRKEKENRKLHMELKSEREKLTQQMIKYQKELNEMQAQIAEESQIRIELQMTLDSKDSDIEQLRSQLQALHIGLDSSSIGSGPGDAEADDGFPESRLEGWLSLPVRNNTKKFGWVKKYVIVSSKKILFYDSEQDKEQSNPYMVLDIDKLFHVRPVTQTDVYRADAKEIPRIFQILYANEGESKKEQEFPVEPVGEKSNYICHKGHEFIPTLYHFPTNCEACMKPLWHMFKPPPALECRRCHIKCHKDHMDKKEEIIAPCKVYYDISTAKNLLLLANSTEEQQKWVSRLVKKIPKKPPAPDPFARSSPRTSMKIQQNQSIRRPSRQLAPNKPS

Regarding `CC1(C)CN(CCOc2ccc3c(C(=O)NC4CC5(C4)CC(c4n[nH]c(=O)c6ccccc46)C5)cnn3c2)CCC1O` [Example 184, 6-(2-(4-hydroxy-3,3-dimethylpiperidin-1-yl)ethoxy)-N-((aR)-6-(4-oxo-3,4-dihydrophthalazin-1-yl)spiro[3.3]heptan-2-yl)pyrazolo[1,5-a]pyridine-3-carboxamide], the IC50 was in the range of 0.2 to 2 nM.
For the molecule `O=C(NC1CC2(C1)CC(c1n[nH]c(=O)c3ccccc13)C2)c1cnn2cc(OCCN3CCC(F)(F)C3)ccc12` [Example 185, 6-(2-(3,3-difluoropyrrolidin-1-yl)ethoxy)-N-((aR)-6-(4-oxo-3,4-dihydrophthalazin-1-yl)spiro[3.3]heptan-2-yl)pyrazolo[1,5-a]pyridine-3-carboxamide], the IC50 was in the range of 0.2 to 2 nM.
With `O=C(NC1CC2(C1)CC(c1n[nH]c(=O)c3ccccc13)C2)c1cnn2cc(OCCN3CCC3)ccc12` [Example 186, 6-(2-(azetidin-1-yl)ethoxy)-N-((aR)-6-(4-oxo-3,4-dihydrophthalazin-1-yl)spiro[3.3]heptan-2-yl)pyrazolo[1,5-a]pyridine-3-carboxamide] the figure was 2.01 to 5 nM; with `CC1(C)CN(CCOc2ccc3c(C(=O)NC4CC5(C4)CC(c4n[nH]c(=O)c6ccccc46)C5)cnn3c2)CCO1` [Example 187, 6-(2-(2,2-dimethylmorpholino)ethoxy)-N-((aR)-6-(4-oxo-3,4-dihydrophthalazin-1-yl)spiro[3.3]heptan-2-yl)pyrazolo[1,5-a]pyridine-3-carboxamide], 0.2 to 2 nM; with `CN1CCN(CCOc2ccc3c(C(=O)NC4CC5(C4)CC(c4n[nH]c(=O)c6ccccc46)C5)cnn3c2)CC1` [Example 188, 6-(2-(4-methylpiperazin-1-yl)ethoxy)-N-((aR)-6-(4-oxo-3,4-dihydrophthalazin-1-yl)spiro[3.3]heptan-2-yl)pyrazolo[1,5-a]pyridine-3-carboxamide], 0.2 to 2 nM.
For the molecule `O=C(NC1CC2(C1)CC(c1n[nH]c(=O)c3ccccc13)C2)c1cnn2cc(OCCN3CCC(F)C3)ccc12` [Example 189, 6-(2-((R)-3-fluoropyrrolidin-1-yl)ethoxy)-N-((aR)-6-(4-oxo-3,4-dihydrophthalazin-1-yl)spiro[3.3]heptan-2-yl)pyrazolo[1,5-a]pyridine-3-carboxamide], the IC50 lay in the range of 0.2 to 2 nM.
On to `O=C(NC1CC2(C1)CC(c1n[nH]c(=O)c3ccccc13)C2)c1cnn2cc(OCCN3CCC(F)C3)ccc12` [Example 190, 6-(2-((S)-3-fluoropyrrolidin-1-yl)ethoxy)-N-((aR)-6-(4-oxo-3,4-dihydrophthalazin-1-yl)spiro[3.3]heptan-2-yl)pyrazolo[1,5-a]pyridine-3-carboxamide], for which the half-inhibitory concentration (IC50) is 0.2 to 2 nM.
As to `O=C(N[C@H]1CC2(C1)C[C@H](c1n[nH]c(=O)c3ccccc31)C2)c1cnn2cc(CCCN3CCOCC3)ccc12` (stereo partly drawn) [Example 191, 6-(3-morpholinopropyl)-N-((aR)-6-(4-oxo-3,4-dihydrophthalazin-1-yl)spiro[3.3]heptan-2-yl)pyrazolo[1,5-a]pyridine-3-carboxamide], the IC50 was in the range of 2.01 to 5 nM.
In the case of `O=C(NC1CC2(C1)CC(c1n[nH]c(=O)c3ccccc13)C2)c1cnn2cc(CCCN3CCCC3)ccc12` [Example 192, N-((aR)-6-(4-oxo-3,4-dihydrophthalazin-1-yl)spiro[3.3]heptan-2-yl)-6-(3-(pyrrolidin-1-yl)propyl)pyrazolo[1,5-a]pyridine-3-carboxamide], the IC50 lay within 2.01 to 5 nM.
Under `CN(C)CCCc1ccc2c(C(=O)NC3CC4(C3)CC(c3n[nH]c(=O)c5ccccc35)C4)cnn2c1` [Example 193, 6-(3-(dimethylamino)propyl)-N-((aR)-6-(4-oxo-3,4-dihydrophthalazin-1-yl)spiro[3.3]heptan-2-yl)pyrazolo[1,5-a]pyridine-3-carboxamide] stands 5.1 to 15 nM; under `O=C(NC1CC2(C1)CC(c1n[nH]c(=O)c3ccccc13)C2)c1cnn2cc(CCCNC3CC3)ccc12` (stereo not drawn) [Example 194], 5.1 to 15 nM.
Take `O=C(NC1CC2(C1)CC(c1n[nH]c(=O)c3ccccc13)C2)c1cnn2cc(CCCO)ccc12` [Example 195, 6-(3-hydroxypropyl)-N-((aR)-6-(4-oxo-3,4-dihydrophthalazin-1-yl)spiro[3.3]heptan-2-yl)pyrazolo[1,5-a]pyridine-3-carboxamide]: the IC50 fell in the range of 5.1 to 15 nM.
For the molecule `O=C(NC1CC2(C1)CC(c1n[nH]c(=O)c3ccccc13)C2)c1cnn2cc(CCCN3CCC(F)(F)CC3)ccc12` [Example 196, 6-(3-(4,4-difluoropiperidin-1-yl)propyl)-N-((aR)-6-(4-oxo-3,4-dihydrophthalazin-1-yl)spiro[3.3]heptan-2-yl)pyrazolo[1,5-a]pyridine-3-carboxamide], the IC50 lay within 2.01 to 5 nM.
On to `O=C(NC1CC2(C1)CC(c1n[nH]c(=O)c3ccccc13)C2)c1cnn2cc(CCCN3CCC(F)(F)C3)ccc12` [Example 197, 6-(3-(3,3-difluoropyrrolidin-1-yl)propyl)-N-((aR)-6-(4-oxo-3,4-dihydrophthalazin-1-yl)spiro[3.3]heptan-2-yl)pyrazolo[1,5-a]pyridine-3-carboxamide], for which the IC50 fell in the range of 0.2 to 2 nM.
`CC(C)(O)CCc1ccc2c(C(=O)N[C@H]3CC4(C3)C[C@H](c3n[nH]c(=O)c5ccccc53)C4)cnn2c1` (stereo partly drawn) [Example 198, 6-(3-hydroxy-3-methylbutyl)-N-((aR)-6-(4-oxo-3,4-dihydrophthalazin-1-yl)spiro[3.3]heptan-2-yl)pyrazolo[1,5-a]pyridine-3-carboxamide]: the IC50 lay within 0.2 to 2 nM.
Take `O=C(N[C@H]1CC2(C1)C[C@H](c1n[nH]c(=O)c3ccccc31)C2)c1cnn2cc(CCC(O)(C(F)(F)F)C(F)(F)F)ccc12` (stereo partly drawn) [Example 199, N-((aR)-6-(4-oxo-3,4-dihydrophthalazin-1-yl)spiro[3.3]heptan-2-yl)-6-(4,4,4-trifluoro-3-hydroxy-3-(trifluoromethyl)butyl)pyrazolo[1,5-a]pyridine-3-carboxamide]: the concentration for half-maximal inhibition (IC50) was in the range of 2.01 to 5 nM.
As to `O=C(N[C@H]1CC2(C1)C[C@H](c1n[nH]c(=O)c3ccccc31)C2)c1cnn2cc(CN3CCOCC3)ccc12` (stereo partly drawn) [Example 200, 6-(morpholinomethyl)-N-((aR)-6-(4-oxo-3,4-dihydrophthalazin-1-yl)spiro[3.3]heptan-2-yl)pyrazolo[1,5-a]pyridine-3-carboxamide], the IC50 lay in the range of 5.1 to 15 nM.
Under `CN1CCN(Cc2ccc3c(C(=O)NC4CC5(C4)CC(c4n[nH]c(=O)c6ccccc46)C5)cnn3c2)CC1` [Example 201, 6-((4-methylpiperazin-1-yl)methyl)-N-((aR)-6-(4-oxo-3,4-dihydrophthalazin-1-yl)spiro[3.3]heptan-2-yl)pyrazolo[1,5-a]pyridine-3-carboxamide] stands 2.01 to 5 nM; under `O=C(NC1CC2(C1)CC(c1n[nH]c(=O)c3ccccc13)C2)c1cnn2cc(CN3CCCCC3)ccc12` [Example 202, N-((aR)-6-(4-oxo-3,4-dihydrophthalazin-1-yl)spiro[3.3]heptan-2-yl)-6-(piperidin-1-ylmethyl)pyrazolo[1,5-a]pyridine-3-carboxamide], 5.1 to 15 nM; under `CN(C)Cc1ccc2c(C(=O)NC3CC4(C3)CC(c3n[nH]c(=O)c5ccccc35)C4)cnn2c1` [Example 203, 6-((dimethylamino)methyl)-N-((aR)-6-(4-oxo-3,4-dihydrophthalazin-1-yl)spiro[3.3]heptan-2-yl)pyrazolo[1,5-a]pyridine-3-carboxamide], 5.1 to 15 nM.
As for `O=C(NC1CC2(C1)CC(c1n[nH]c(=O)c3ccccc13)C2)c1cnn2cc(Cc3ccccc3)ccc12` [Example 204, 6-benzyl-N-((aR)-6-(4-oxo-3,4-dihydrophthalazin-1-yl)spiro[3.3]heptan-2-yl)pyrazolo[1,5-a]pyridine-3-carboxamide], the IC50 was 0.2 to 2 nM.
Turning to `O=C(NC1CC2(C1)CC(c1n[nH]c(=O)c3ccccc13)C2)c1cnn2cc(CCC(=O)N3CCOCC3)ccc12` [Example 205, 6-(3-morpholino-3-oxopropyl)-N-((aR)-6-(4-oxo-3,4-dihydrophthalazin-1-yl)spiro[3.3]heptan-2-yl)pyrazolo[1,5-a]pyridine-3-carboxamide], the IC50 lay within 2.01 to 5 nM.
In the case of `O=C(NC1CC2(C1)CC(c1n[nH]c(=O)c3ccccc13)C2)c1cnn2cc(CCC(F)(F)F)ccc12` [Example 206, N-((aR)-6-(4-oxo-3,4-dihydrophthalazin-1-yl)spiro[3.3]heptan-2-yl)-6-(3,3,3-trifluoropropyl)pyrazolo[1,5-a]pyridine-3-carboxamide], the IC50 lay within 0.2 to 2 nM.
With `N#CCCc1ccc2c(C(=O)NC3CC4(C3)CC(c3n[nH]c(=O)c5ccccc35)C4)cnn2c1` [Example 207, 6-(2-cyanoethyl)-N-((aR)-6-(4-oxo-3,4-dihydrophthalazin-1-yl)spiro[3.3]heptan-2-yl)pyrazolo[1,5-a]pyridine-3-carboxamide] the figure was 2.01 to 5 nM; with `O=C(NC1CC2(C1)CC(c1n[nH]c(=O)c3ccccc13)C2)c1cnn2cc(COCCN3CCOCC3)ccc12` [Example 208, 6-((2-morpholinoethoxy)methyl)-N-((aR)-6-(4-oxo-3,4-dihydrophthalazin-1-yl)spiro[3.3]heptan-2-yl)pyrazolo[1,5-a]pyridine-3-carboxamide], 2.01 to 5 nM.
Under `COCc1ccc2c(C(=O)NC3CC4(C3)CC(c3n[nH]c(=O)c5ccccc35)C4)cnn2c1` [Example 209, 6-(methoxymethyl)-N-((aR)-6-(4-oxo-3,4-dihydrophthalazin-1-yl)spiro[3.3]heptan-2-yl)pyrazolo[1,5-a]pyridine-3-carboxamide] stands 5.1 to 15 nM; under `COc1ncc(-c2ccc3c(C(=O)NC4CC5(C4)CC(c4n[nH]c(=O)c6ccccc46)C5)cnn3c2)cn1` [Example 210, 6-(2-methoxypyrimidin-5-yl)-N-((aR)-6-(4-oxo-3,4-dihydrophthalazin-1-yl)spiro[3.3]heptan-2-yl)pyrazolo[1,5-a]pyridine-3-carboxamide], 2.01 to 5 nM.
